Like-named read-outs stand apart in the source and are kept apart here.
Target: T1, WIZ protein (HiBit-WIZ fusion protein) (Homo sapiens, UniProt O95785+Q96SW2)
T1 construct: expressed in transfected cells
Test: Quantification of WIZ protein levels in HiBit tag fusion protein assay (WIZ HiBit assay in 293T cells)
Assay type: cell-based
Set-up: remaining activity / Dmax: dose or concentration left out as unconfirmed
Procedure, shortened: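 HiBit-tagged WIZ (N-terminal tag, HSVTK promoter) stably expressed single-copy in 293T cells; 10-point 1:5 compound series, top 25 μM, ~18 h at 37 °C. Lytic HiBit/LgBit luminescence read; Amax = curve-fitted % WIZ-HiBit remaining at 25 μM, DMSO normalized to 100%.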

[1] = HEK-293T, read-out: % degradation of WIZ (100 − Amax)
[2] = WIZ HiBit assay in 293T cells; 10-point, 5-fold dose response, highest concentration 25 μM, about 18 hours; read-out: WIZ AC50
[3] = HEK-293T, 100 − Amax, at 25 uM; 293T cells; read-out: % degradation of WIZ (100 − Amax)
[4] = HEK-293T, DMSO-normalized, curve-fitted percentage of WIZ-HiBit remaining at 25 uM; 293T cells; read-out: WIZ Amax

T1 sequence (O95785 whole entry, the tested form may be a part): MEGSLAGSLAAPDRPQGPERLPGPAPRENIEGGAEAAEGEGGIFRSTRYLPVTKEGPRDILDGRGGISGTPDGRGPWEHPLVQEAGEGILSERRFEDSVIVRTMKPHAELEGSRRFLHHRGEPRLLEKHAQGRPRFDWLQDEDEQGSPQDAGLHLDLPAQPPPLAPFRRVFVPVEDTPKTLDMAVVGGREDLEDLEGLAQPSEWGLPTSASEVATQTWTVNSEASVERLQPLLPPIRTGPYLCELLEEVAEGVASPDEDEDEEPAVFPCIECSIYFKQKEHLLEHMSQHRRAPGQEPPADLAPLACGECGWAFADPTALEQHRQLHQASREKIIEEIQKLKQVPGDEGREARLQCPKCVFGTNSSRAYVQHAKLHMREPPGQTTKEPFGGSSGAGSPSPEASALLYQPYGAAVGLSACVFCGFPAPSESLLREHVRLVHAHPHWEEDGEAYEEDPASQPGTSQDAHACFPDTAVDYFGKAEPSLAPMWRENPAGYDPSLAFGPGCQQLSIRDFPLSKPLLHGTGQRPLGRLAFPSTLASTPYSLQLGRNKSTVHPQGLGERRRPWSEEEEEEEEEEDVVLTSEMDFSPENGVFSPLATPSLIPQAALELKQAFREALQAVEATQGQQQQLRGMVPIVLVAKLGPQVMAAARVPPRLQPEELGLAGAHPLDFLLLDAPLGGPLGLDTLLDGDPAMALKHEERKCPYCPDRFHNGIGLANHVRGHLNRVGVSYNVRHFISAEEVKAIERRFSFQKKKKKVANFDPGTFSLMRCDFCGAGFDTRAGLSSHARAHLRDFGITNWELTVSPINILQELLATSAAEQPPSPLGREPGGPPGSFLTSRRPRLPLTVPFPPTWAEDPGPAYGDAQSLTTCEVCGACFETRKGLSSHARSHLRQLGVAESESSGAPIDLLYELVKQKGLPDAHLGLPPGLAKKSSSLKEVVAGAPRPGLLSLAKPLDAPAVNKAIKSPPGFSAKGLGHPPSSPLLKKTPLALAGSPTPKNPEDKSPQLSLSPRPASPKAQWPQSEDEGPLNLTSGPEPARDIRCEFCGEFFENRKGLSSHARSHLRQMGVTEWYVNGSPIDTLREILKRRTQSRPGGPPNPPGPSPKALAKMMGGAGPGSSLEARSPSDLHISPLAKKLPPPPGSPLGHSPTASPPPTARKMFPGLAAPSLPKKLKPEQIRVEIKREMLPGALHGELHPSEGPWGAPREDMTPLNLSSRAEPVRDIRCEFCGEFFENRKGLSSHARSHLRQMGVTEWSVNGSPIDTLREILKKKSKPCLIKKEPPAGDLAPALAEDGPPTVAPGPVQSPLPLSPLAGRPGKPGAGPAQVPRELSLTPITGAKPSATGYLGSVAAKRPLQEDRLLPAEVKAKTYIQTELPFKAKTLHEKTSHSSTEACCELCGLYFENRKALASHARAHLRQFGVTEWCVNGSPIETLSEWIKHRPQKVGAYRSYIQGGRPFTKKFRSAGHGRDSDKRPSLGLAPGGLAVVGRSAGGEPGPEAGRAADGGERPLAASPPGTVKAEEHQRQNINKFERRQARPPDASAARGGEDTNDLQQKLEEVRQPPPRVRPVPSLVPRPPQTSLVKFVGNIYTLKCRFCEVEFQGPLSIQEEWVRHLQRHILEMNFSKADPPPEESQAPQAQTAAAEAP
T1 sequence (Q96SW2 whole entry, the tested form may be a part): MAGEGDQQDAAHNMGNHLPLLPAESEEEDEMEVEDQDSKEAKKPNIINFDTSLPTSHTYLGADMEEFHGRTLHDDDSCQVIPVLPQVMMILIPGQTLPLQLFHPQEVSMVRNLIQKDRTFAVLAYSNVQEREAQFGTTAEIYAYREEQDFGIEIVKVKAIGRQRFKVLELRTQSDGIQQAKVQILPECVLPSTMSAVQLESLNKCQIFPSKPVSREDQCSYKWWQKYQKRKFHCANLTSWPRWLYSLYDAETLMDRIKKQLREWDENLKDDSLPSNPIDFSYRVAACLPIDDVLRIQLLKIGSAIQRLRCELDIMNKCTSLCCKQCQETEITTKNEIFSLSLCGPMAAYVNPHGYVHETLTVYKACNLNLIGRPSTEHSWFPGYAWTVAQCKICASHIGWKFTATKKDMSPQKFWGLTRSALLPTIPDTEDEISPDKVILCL
T1 sequence (Q16531 whole entry partner, the tested form may be a part): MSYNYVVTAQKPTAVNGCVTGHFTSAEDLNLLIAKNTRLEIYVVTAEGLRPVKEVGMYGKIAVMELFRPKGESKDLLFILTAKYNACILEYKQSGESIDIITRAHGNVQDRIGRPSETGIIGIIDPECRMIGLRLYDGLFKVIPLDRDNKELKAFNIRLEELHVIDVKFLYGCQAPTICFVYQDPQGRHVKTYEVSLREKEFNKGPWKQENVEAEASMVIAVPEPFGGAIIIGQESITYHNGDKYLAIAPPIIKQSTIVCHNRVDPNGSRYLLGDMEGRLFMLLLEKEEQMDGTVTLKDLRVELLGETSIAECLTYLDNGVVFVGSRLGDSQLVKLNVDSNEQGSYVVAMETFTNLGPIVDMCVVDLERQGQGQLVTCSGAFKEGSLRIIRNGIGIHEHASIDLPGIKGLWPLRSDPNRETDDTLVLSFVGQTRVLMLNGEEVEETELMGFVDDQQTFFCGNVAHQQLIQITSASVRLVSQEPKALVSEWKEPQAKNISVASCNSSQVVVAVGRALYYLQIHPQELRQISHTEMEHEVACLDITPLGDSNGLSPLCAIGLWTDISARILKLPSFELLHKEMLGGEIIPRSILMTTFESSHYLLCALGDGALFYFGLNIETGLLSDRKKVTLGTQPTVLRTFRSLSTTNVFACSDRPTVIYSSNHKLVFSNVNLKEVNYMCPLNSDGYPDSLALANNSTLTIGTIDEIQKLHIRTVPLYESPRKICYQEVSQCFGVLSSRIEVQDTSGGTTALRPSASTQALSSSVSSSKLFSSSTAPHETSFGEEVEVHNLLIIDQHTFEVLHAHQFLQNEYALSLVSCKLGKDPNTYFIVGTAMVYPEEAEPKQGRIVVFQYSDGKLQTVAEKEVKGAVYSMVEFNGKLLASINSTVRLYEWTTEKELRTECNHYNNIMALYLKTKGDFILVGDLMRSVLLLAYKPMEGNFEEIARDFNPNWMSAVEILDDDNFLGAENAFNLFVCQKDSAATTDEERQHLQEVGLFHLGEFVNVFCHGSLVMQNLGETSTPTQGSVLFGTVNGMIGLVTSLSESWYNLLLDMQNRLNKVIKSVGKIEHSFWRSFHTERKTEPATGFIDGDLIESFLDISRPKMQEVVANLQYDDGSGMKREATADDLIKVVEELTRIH

SMILES | DC50 [2] | Dmax at 25 µM [3] | remaining activity at 25 µM [4] | Dmax [1] | remaining activity (HEK-293T, read-out: WIZ Amax) | DC50 (read-out: WIZ AC50; WIZ HiBit assay in 293T cells; 10-point, 5-fold dose response, highest concentration 25 μM, about 18 hours)
CC(C)C(=O)N1CCC(Cc2ccn3ncc(N4CCC(=O)NC4=O)c3c2)CC1 [Example 98, 1-(5-((1-isobutyrylpiperidin-4-yl)methyl)pyrazolo[1,5-a]pyridin-3-yl)dihydropyrimidine-2,4(1H,3H)-dione] | 0.587 µM |  |  | 59% | 41% | 
O=C1CCN(c2cnn3ccc(CC4CCN(CC(F)(F)C(F)F)CC4)cc23)C(=O)N1 [Example 31, 1-(5-((1-(2,2,3,3-tetrafluoropropyl)piperidin-4-yl)methyl)pyrazolo[1,5-a]pyridin-3-yl)dihydropyrimidine-2,4(1H,3H)-dione] | 0.027 µM | 74% | 26% |  |  | 
O=C1CCN(c2cnn3ccc(CC4CCN(CC5CCCC5)CC4)cc23)C(=O)N1 [Example 2, 1-(5-((1-(cyclopentylmethyl)piperidin-4-yl)methyl)pyrazolo[1,5-a]pyridin-3-yl)dihydropyrimidine-2,4(1H,3H)-dione] | 0.023 µM | 91% | 9% |  |  | 
O=C1CCN(c2cnn3ccc(CC4CCN(CC5CCOC5)CC4)cc23)C(=O)N1 (stereo not drawn) [Example 14, 1-(5-((1-((tetrahydrofuran-3-yl)methyl)piperidin-4-yl)methyl)pyrazolo[1,5-a]pyridin-3-yl)dihydropyrimidine-2,4(1H,3H)-dione] | 0.028 µM | 84% | 16% |  |  | 
CCC(CC)N1CCC(Cc2ccn3ncc(N4CCC(=O)NC4=O)c3c2)CC1 [Example 20, 1-(5-((1-(pentan-3-yl)piperidin-4-yl)methyl)pyrazolo[1,5-a]pyridin-3-yl)dihydropyrimidine-2,4(1H,3H)-dione] | 0.022 µM | 79% | 21% |  |  | 
O=C1CCN(c2cnn3ccc(CC4CCN(Cc5cccc(C(F)(F)F)c5)CC4)cc23)C(=O)N1 [Example 25, 1-(5-((1-(3-(trifluoromethyl)benzyl)piperidin-4-yl)methyl)pyrazolo[1,5-a]pyridin-3-yl)dihydropyrimidine-2,4(1H,3H)-dione] | 0.04 µM | 76% | 24% |  |  | 
CO[C@H]1CC[C@H](CN2CCC(Cc3ccn4ncc(N5CCC(=O)NC5=O)c4c3)CC2)CC1 [Example 64, 1-(5-((1-(((1r,4r)-4-methoxycyclohexyl)methyl)piperidin-4-yl)methyl)pyrazolo[1,5-a]pyridin-3-yl)dihydropyrimidine-2,4(1H,3H)-dione] | 0.043 µM | 94% | 6% |  |  | 
CN1CCC(Cc2ccn3ncc(N4CCC(=O)NC4=O)c3c2)CC1 [Example 49, 1-(5-((1-methylpiperidin-4-yl)methyl)pyrazolo[1,5-a]pyridin-3-yl)dihydropyrimidine-2,4(1H,3H)-dione] | 2.79 µM | 66% | 34% |  |  | 
O=C1CCN(c2cnn3ccc(CC4CCN(S(=O)(=O)C5CCCCC5)CC4)cc23)C(=O)N1 [Example 81] | 0.015 µM | 92% | 8% |  |  | 
CCN(C)C(=O)N1CC[C@@H](Cc2ccn3ncc(N4CCC(=O)NC4=O)c3c2)C[C@@H]1C [Example 299, (2S,4R)-4-((3-(2,4-dioxotetrahydropyrimidin-1(2H)-yl)pyrazolo[1,5-a]pyridin-5-yl)methyl)-N-ethyl-N,2-dimethylpiperidine-1-carboxamide] |  |  |  | 82% | 18% | 0.009 µM
COCCN1CCC(Cc2ccn3ncc(N4CCC(=O)NC4=O)c3c2)CC1 [Example 34, 1-(5-((1-(2-methoxyethyl)piperidin-4-yl)methyl)pyrazolo[1,5-a]pyridin-3-yl)dihydropyrimidine-2,4(1H,3H)-dione] | 0.945 µM | 73% | 27% |  |  | 

The next lines start with results.

DC50 [2] | Dmax at 25 µM [3] | remaining activity at 25 µM [4] | SMILES | Dmax [1] | remaining activity (HEK-293T, read-out: WIZ Amax) | DC50 (read-out: WIZ AC50; WIZ HiBit assay in 293T cells; 10-point, 5-fold dose response, highest concentration 25 μM, about 18 hours)
0.007 µM | 90% | 10% | CC(C)(C1CCC(F)(F)CC1)N1CCC(Cc2ccn3ncc(N4CCC(=O)NC4=O)c3c2)CC1 [Example 140, 1-(5-((1-(2-(4,4-difluorocyclohexyl)propan-2-yl)piperidin-4-yl)methyl)pyrazolo[1,5-a]pyridin-3-yl)dihydropyrimidine-2,4(1H,3H)-dione] |  |  | 
> 25 µM | 0% | 100% | O=C1CCN(c2cnn3ccc(CN4CCCNCC4)cc23)C(=O)N1 [Example 248, 1-(5-((1,4-diazepan-1-yl)methyl)pyrazolo[1,5-a]pyridin-3-yl)dihydropyrimidine-2,4(1H,3H)-dione] |  |  | 
0.191 µM | 73% | 27% | CC(C)CN1CCN(C(C)c2ccn3ncc(N4CCC(=O)NC4=O)c3c2)CC1 (stereo not drawn) [Example 345, 1-(5-(1-(4-isobutylpiperazin-1-yl)ethyl)pyrazolo[1,5-a]pyridin-3-yl)dihydropyrimidine-2,4(1H,3H)-dione] |  |  | 
0.002 µM | 87% | 13% | C[C@H]1C[C@H](Cc2ccn3ncc(N4CCC(=O)NC4=O)c3c2)CCN1C[C@H]1C[C@@H](F)[C@@H](F)C1 [Example 304, 1-(5-(((2S,4R)-1-(((1r,3R,4S)-3,4-difluorocyclopentyl)methyl)-2-methylpiperidin-4-yl)methyl)pyrazolo[1,5-a]pyridin-3-yl)dihydropyrimidine-2,4(1H,3H)-dione] |  |  | 
0.025 µM | 69% | 31% | O=C1CCN(c2cnn3ccc(CC4CCCN(CC5CCCCC5)CC4)cc23)C(=O)N1 (stereo not drawn) [Example 272, 1-(5-((1-(cyclohexylmethyl)azepan-4-yl)methyl)pyrazolo[1,5-a]pyridin-3-yl)dihydropyrimidine-2,4(1H,3H)-dione] |  |  | 
0.37 µM | 44% | 56% | CC(C)CN1CC[C@H](Cc2ccn3ncc(N4CCC(=O)NC4=O)c3c2)C[C@@H]1C(F)(F)F (relative stereo) [Example 312, (cis)-1-(5-((1-isobutyl-2-(trifluoromethyl)piperidin-4-yl)methyl)pyrazolo[1,5-a]pyridin-3-yl)dihydropyrimidine-2,4(1H,3H)-dione] |  |  | 
0.032 µM | 85% | 15% | C[C@H]1CN(Cc2ccn3ncc(N4CCC(=O)NC4=O)c3c2)CCN1C1CCC(F)(F)CC1 [Example 334] |  |  | 
0.004 µM | 83% | 17% | C[C@H]1CN(Cc2ccn3ncc(N4CCC(=O)NC4=O)c3c2)CCN1C[C@H]1CC[C@H](C(F)(F)F)CC1 [Example 323, 1-(5-(((S)-3-methyl-4-(((1r,4S)-4-(trifluoromethyl)cyclohexyl)methyl)piperazin-1-yl)methyl)pyrazolo[1,5-a]pyridin-3-yl)dihydropyrimidine-2,4(1H,3H)-dione] |  |  | 
0.033 µM | 86% | 14% | CC(C)(C1CCOCC1)N1CCC(Cc2ccn3ncc(N4CCC(=O)NC4=O)c3c2)CC1 [Example 136, 1-(5-((1-(2-(tetrahydro-2H-pyran-4-yl)propan-2-yl)piperidin-4-yl)methyl)pyrazolo[1,5-a]pyridin-3-yl)dihydropyrimidine-2,4(1H,3H)-dione] |  |  | 
0.033 µM | 86% | 14% | CO[C@H]1CC[C@@H](CN2CCN(Cc3ccn4ncc(N5CCC(=O)NC5=O)c4c3)C[C@@H]2C)CC1 [Example 211, 1-(5-(((S)-4-(((1s,4R)-4-methoxycyclohexyl)methyl)-3-methylpiperazin-1-yl)methyl)pyrazolo[1,5-a]pyridin-3-yl)dihydropyrimidine-2,4(1H,3H)-dione] |  |  | 
0.0004 µM | 90% | 10% | C[C@H]1C[C@H](Cc2ccn3ncc(N4CCC(=O)NC4=O)c3c2)CCN1CC1CCC(C)(C)CC1 [Example 149] |  |  | 
0.029 µM | 68% | 32% | O=C1CCN(c2cnn3ccc(CC4CCN(S(=O)(=O)N5CCCC5)CC4)cc23)C(=O)N1 [Example 297, 1-(5-((1-(pyrrolidin-1-ylsulfonyl)piperidin-4-yl)methyl)pyrazolo[1,5-a]pyridin-3-yl)dihydropyrimidine-2,4(1H,3H)-dione] |  |  | 
0.071 µM | 77% | 23% | O=C1CCN(c2cnn3ccc(CN4CCN(CC5CCC5)CC4)cc23)C(=O)N1 [Example 188, 1-(5-((4-(cyclobutylmethyl)piperazin-1-yl)methyl)pyrazolo[1,5-a]pyridin-3-yl)dihydropyrimidine-2,4(1H,3H)-dione] |  |  | 
0.046 µM | 80% | 20% | CO[C@H]1C[C@@H](CN2CC[C@@H](Cc3ccn4ncc(N5CCC(=O)NC5=O)c4c3)C[C@@H]2C)C1 [Example 303, 1-(5-(((2S,4R)-1-(((1s,3R)-3-methoxycyclobutyl)methyl)-2-methylpiperidin-4-yl)methyl)pyrazolo[1,5-a]pyridin-3-yl)dihydropyrimidine-2,4(1H,3H)-dione] |  |  | 
0.166 µM | 64% | 36% | CC1(CN2CCC(Cc3ccn4ncc(N5CCC(=O)NC5=O)c4c3)CC2)COC1 [Example 118, 1-(5-((1-((3-methyloxetan-3-yl)methyl)piperidin-4-yl)methyl)pyrazolo[1,5-a]pyridin-3-yl)dihydropyrimidine-2,4(1H,3H)-dione] |  |  | 
1.24 µM | 40% | 60% | CC(c1cccnc1)N1CCN(Cc2ccn3ncc(N4CCC(=O)NC4=O)c3c2)CC1 (stereo not drawn) [Example 175] |  |  | 

Source: patent publication US11787785B2 (NOVARTIS AG, priority 2021, dated 2023)
